A short description of one data set: in vivo. More on the design: species or system mice (CF1 S female). Conditions: sc, mouse.
The subject of data set [1] is pain induced by phenylquinone (writhing syndrome). The data set can be described thus: Phenylquinone writhing test (PQW), analgesic activity in mice. Format: in vivo, mice (fasted female white mice). The source says: Exp. Biol. Med. 95, 729 (1957). […] Rev. 11 115-145 (1947).
In data set [2] the test system is morphine-induced Straub tail in mice. The data set can be described thus: Narcotic antagonist (anti-Straub tail) test in mice. The format is in vivo. The settings on record: ip, 10 min; mouse, compound intraperitoneal, 10 min later 53 mg/kg morphine sulfate s.c.; compounds of the invention as hydrochloride salt; 135 mg/kg or higher = inactive; read-out: Antistraub Tail ED50 (Mouse ED50 Values).

Data set [3] has as its system Straub tail induced by morphine sulfate. Nature of the data set: Modified Straub Tail Antagonism test. The format is in vivo, mice. The settings on record: Mus musculus, sc; test drug subcutaneous in 1% methyl cellulose with 1.25% Tween 80; morphine sulfate 35 mg/kg i.p. 5 min later; observed after 15 min for 5 min; read-out: ED 50 (modified Straub Tail Antagonism). On the procedure:
The Straub Tail Antagonism test was modified by giving test drugs (in 1% methyl cellulose with 1.25% "Tween 80") subcutaneously, followed by intraperitoneal injection of morphine sulfate (at 35 mg/kg) 5 minutes after the test drug. […] ED 50's were calculated as above with a 95% confidence limit as described by Litchfield, J. Pharmacol. Exp. Ther. 96, 99 (1949).

Setting [4] is: subcutaneous, within 25 minutes after dosing, compounds of the invention as hydrochloride salt, 135 mg/kg or higher = inactive, read-out: Straub Tail ED50 (Mouse ED50 Values).
Setting [5] is: 0.5 h, mouse, oral, observed for 10 min commencing 30 min after administration, compounds of the invention as hydrochloride salt, 135 mg/kg or higher = inactive, read-out: PQW ED50 (Mouse ED50 Values, POW).

Among the data in patent publication US4241065A, “Fluoro analogs of hydrocodone and oxycodone useful as analgesics, narcotic antagonists or both” (priority 1979, dated 1980) are ED50 values, retold here.

Like-named read-outs stand apart in the source and are kept apart here. A value given as a limit tells only on which side of the number the result lay.

For the molecule `COc1ccc2c3c1OC1C(F)C=CC4C(C2)N(C)CCC341` (stereo not drawn) [Ayer 3,137,701, reference compound], in the data set “in vivo” (setting [4]), the ED50 at 25 min stood at 63 mg/kg.
`COc1ccc2c3c1O[C@H]1[C@@H](O)C=C[C@H]4[C@@H](C2)N(C)CC[C@@]341` [Codeine PO4, reference compound]: the ED50 at 25 min in “in vivo” (setting [4]) is 202 mg/kg.
`COc1ccc2c3c1O[C@H]1C(F)=CC[C@H]4[C@@H](C2)N(C)CC[C@]314.Cl` [Compound 2, 17-Methyl-6,7-didehydro-4,5-epoxy-6-fluoro-3-methoxymorphinan Hydrochloride]: the ED50 in data set [1] (setting [5]) is 8.5 mg/kg.
With `COc1ccc2c3c1O[C@H]1C(F)(F)CC[C@H]4[C@@H](C2)N(C)CC[C@@]341.Cl` [Compound 4, 17-Methyl-4,5-epoxy-6,6-difluoro-3-methoxymorphinan Hydrochloride], the ED50 in data set [2] was above 81 mg/kg. The ED50 at 25 min in “in vivo” (setting [4]) came to 10 mg/kg.
For `CN1CC[C@]23c4c5ccc(O)c4OC2C(F)=CC[C@H]3[C@H]1C5.Cl` (stereo partly drawn) [Compound 6, 17-Methyl-6,7-didehydro-4,5-epoxy-6-fluoro-3-hydroxymorphinan Hydrochloride], the ED50 at 25 min in the data set “in vivo” (setting [4]) came to 17 mg/kg. In data set [1] (setting [5]), the ED50 came out at 8 mg/kg.
For `COc1ccc2c3c1OC1C(F)(F)CC[C@H]4[C@@H](C2)N(CC2CCC2)CC[C@]314.Cl` (stereo partly drawn) [Compound 10, 17-Cyclobutylmethyl-4,5-epoxy-6,6-difluoro-3-methoxymorphinan Hydrochloride], the ED50 at 25 min in “in vivo” (setting [4]) is above 81 mg/kg.
Consider `COc1ccc2c3c1OC1C(F)(F)CC[C@H]4[C@@H](C2)N(CC2CC2)CC[C@]314` (stereo partly drawn) [Compound 15, 17-Cyclopropylmethyl-4,5-epoxy-6,6-difluoro-3-methoxymorphinan], for which the ED50 at 25 min in “in vivo” (setting [4]) is above 54 mg/kg.
In the case of `COc1ccc2c3c1OC1C(F)=CC[C@H]4[C@@H](C2)N(CC2CC2)CC[C@]314` (stereo partly drawn) [Compound 16, 17-Cyclopropylmethyl-6,7-didehydro-4,5-epoxy-6-fluoro-3-methoxymorphinan], the ED50 at 25 min in the data set “in vivo” (setting [4]) is above 135 mg/kg.
With `Oc1ccc2c3c1OC1C(F)(F)CC[C@H]4[C@@H](C2)N(CC2CC2)CC[C@]314` (stereo partly drawn) [Compound 17, 17-Cyclopropylmethyl-4,5-epoxy-6,6-difluoro-3-hydroxymorphinan], the ED50 in data set [2] was determined as 0.003 mg/kg; in data set [1] (0.5 h, mouse, oral, * peak time value (maximum activity within 30 min of administration), compounds of the invention as hydrochloride salt, read-out: PQW ED50 (Mouse ED50 Values, POW), peak time value), 2.6 mg/kg; in data set [3] it was 0.0033 mg/kg. Also, the ED50 at 25 min in the data set “in vivo” (setting [4]) was above 54 mg/kg.
As to `Cl.Oc1ccc2c3c1OC1C(F)=CC[C@H]4[C@@H](C2)N(CC2CC2)CC[C@]314` (stereo partly drawn) [Compound 18, 17-Cyclopropylmethyl-6,7-didehydro-4,5-epoxy-6-fluoro-3-hydroxymorphinan Hydrochloride], the ED50 in data set [2] worked out at 0.18 mg/kg; in data set [1] (setting [5]), 7.2 mg/kg. Also, the ED50 at 25 min in “in vivo” (setting [4]) is above 135 mg/kg.
For `COc1ccc2c3c1O[C@H]1C(F)(F)CC[C@@]4(O)[C@@H](C2)N(CC2CCC2)CC[C@]314.Cl` [Compound 26, 17-Cyclobutylmethyl-4,5α-epoxy-6,6-difluoro-14β-hydroxy-3-methoxymorphinan Hydrochloride], the ED50 at 25 min in the data set “in vivo” (setting [4]) was above 135 mg/kg.
As to `CC(=O)Oc1ccc2c3c1O[C@H]1C(F)=CC[C@H]4[C@@H](C2)N(CC2CC2)CC[C@]314` [Compound 29, 17-Cyclopropylmethyl-6,7-didehydro-4,5α-epoxy-6-fluoro-3-acetoxymorphinan], the ED50 in data set [2] amounted to 0.0022 mg/kg; in data set [1] (setting [5]), 1.3 mg/kg; in data set [1] (Mus musculus, sc, 0.25 h, subcutaneous, fifteen minutes after injection, read-out: ED50 (analgesic, subcutaneous injection)), 0.0016 mg/kg. For the same molecule, in “in vivo” (setting [4]), the ED50 at 25 min is above 18 mg/kg.
Take `CC(=O)Oc1ccc2c3c1O[C@H]1C(F)(F)CC[C@H]4[C@@H](C2)N(CC2CC2)CC[C@@]341` [Compound 30, 17-Cyclopropylmethyl-4,5α-epoxy-6,6-difluoro-3-acetoxymorphinan]: the ED50 in data set [2] turned out to be 0.0031 mg/kg; in data set [1] (setting [5]), 2.2 mg/kg. In the data set “in vivo” (setting [4]), the ED50 at 25 min is above 18 mg/kg.
`CN1CC[C@]23c4c5ccc(O)c4O[C@H]2[C@@H](O)C=C[C@H]3[C@H]1C5` [Morphine SO4, reference compound] had an ED50 at 25 min in the data set “in vivo” (135 mg/kg) of 48 mg/kg.
As to `CC(C)=CCN1CCC2(C)c3cc(O)ccc3CC1C2C` (stereo not drawn) [Pentazocine, reference compound], the ED50 in data set [3] worked out at 1.9 mg/kg.
